Test results from patent US20220372013A2, “PIPERIDINE-2,6-DIONE DERIVATIVES AND CROHN'S DISEASE TREATING” (Tianjin Hemay Pharmaceutical Sci-Tech Co., Ltd, priority 2016, published 2022).
Where “and” joins values, the source holds several entries; their conditions need not be identical. Identical values can stand only once.

Tested on: mice
Test: Biological Example 5: acute toxicity experiment of single oral administration in mice
Format: in vivo
Conditions: single oral 1000 mg/Kg, Mean ± SD
Experimental: The mice were fasted one day before the experiment. On the day of the experiment, 6 mice (ICR mice, body weight of 19-21 g, three females and three males) were selected in each experiment group. First of all, one female and one male were selected to orally give 1000 mg/Kg, and observed for 5-10 minutes. If there were no obvious side effects, the remaining 4 animals were orally given the same dose, and observed for 10-15 minutes. If no animal died, the animals were placed in a box to balancedly feed for 7 days. The state was observed and the body weight was recorded daily.
Observation Indexes within 0-15 Minutes after Administration
Activity: restlessness, hyperactivity
Nervous system response: tremor, spasm, convulsion, ataxia, posture abnormality, etc.
Autonomic nerve: exophthalmos, salivation, tears, urination (hematuria), diarrhea, piloerection, breathing, etc.
State of Animal: lethargy, hyperactivity, excitement, hair loss, diarrhea, abnormal behavior, death, etc.

Structure (SMILES)	Daily Body Weight (Female mice, Day 1)	Daily Body Weight (Female mice, Day 2)	Daily Body Weight (Female mice, Day 3)	Daily Body Weight (Female mice, Day 4)	Daily Body Weight (Female mice, Day 5)	Daily Body Weight (Female mice, Day 6)	Daily Body Weight (Female mice, Day 7)	Daily Body Weight (Male mice, Day 1)	Daily Body Weight (Male mice, Day 2)	Daily Body Weight (Male mice, Day 3)	Daily Body Weight (Male mice, Day 4)	Daily Body Weight (Male mice, Day 5)	Daily Body Weight (Male mice, Day 6)	Daily Body Weight (Male mice, Day 7)	further results
COCCN1C(=O)CCC(N2C(=O)c3cccc(NC(C)=O)c3C2=O)C1=O (stereo not shown) [Example 1, 4-acetylamino-2-(1-(2-methoxyethyl)-2,6-dioxopiperidin-3-yl)isoindolin-1,3-dione]	18.5 ± 0.1 g	22.8 ± 0.3 g	23.2 ± 0.7 g	24.0 ± 0.2 g	25.3 ± 1.6 g	25.7 ± 1.6 g	27.1 ± 1.1 g	20.1 ± 1.4 g	23.8 ± 1.4 g	24.9 ± 1.0 g	26.3 ± 1.2 g	27.7 ± 1.3 g	29.2 ± 1.4 g	29.4 ± 1.4 g	–
COCCN1C(=O)CCC(N2C(=O)c3cccc(N(C)C)c3C2=O)C1=O (stereo not shown) [Example 3, 4-dimethylamino-2-(1-(2-methoxyethyl)-2,6-dioxopiperidin-3-yl)isoindolin-1,3-dione]	–	–	–	–	–	–	–	–	–	–	–	–	–	–	Daily Body Weight (Female mice, Day 1, 1000 mg/kg): 18.3 ± 0.4 g and 18.8 ± 0.4 g; Daily Body Weight (Female mice, Day 2, 1000 mg/kg): 21.7 ± 0.2 g and 22.1 ± 1.2 g; Daily Body Weight (Female mice, Day 3, 1000 mg/kg): 22.3 ± 0.2 g and 22.7 ± 0.8 g; Daily Body Weight (Female mice, Day 4, 1000 mg/kg): 22.6 ± 0.8 g and 23.0 ± 1.4 g; Daily Body Weight (Female mice, Day 5, 1000 mg/kg): 23.0 ± 1.4 g and 23.7 ± 1.9 g; Daily Body Weight (Female mice, Day 6, 1000 mg/kg): 22.6 ± 1.3 g and 24.1 ± 1.2 g; Daily Body Weight (Female mice, Day 7, 1000 mg/kg): 22.7 ± 0.4 g and 24.4 ± 1.8 g; Daily Body Weight (Male mice, Day 1, 1000 mg/kg): 18.8 ± 0.7 g and 18.0 ± 0.2 g; Daily Body Weight (Male mice, Day 2, 1000 mg/kg): 23.3 ± 0.1 g and 22.9 ± 0.3 g; Daily Body Weight (Male mice, Day 3, 1000 mg/kg): 24.3 ± 0.1 g and 24.3 ± 0.9 g; Daily Body Weight (Male mice, Day 4, 1000 mg/kg): 25.6 ± 0.7 g and 25.2 ± 1.1 g; Daily Body Weight (Male mice, Day 5, 1000 mg/kg): 26.9 ± 0.8 g and 27.0 ± 1.3 g; Daily Body Weight (Male mice, Day 6, 1000 mg/kg): 27.9 ± 0.9 g and 28.2 ± 1.9 g; Daily Body Weight (Male mice, Day 7, 1000 mg/kg): 28.6 ± 0.4 g and 28.5 ± 2.7 g
COCCN1C(=O)CCC(N2C(=O)c3ccc(F)c(N)c3C2=O)C1=O (stereo not shown) [Example 9, 4-amino-5-fluoro-2-(1-(2-methoxyethyl)-2,6-dioxopiperidin-3-yl)isoindolin-1,3-dione]	17.5 ± 0.6 g	22.1 ± 0.9 g	22.1 ± 0.7 g	22.8 ± 0.8 g	22.8 ± 1.0 g	22.7 ± 1.6 g	23.6 ± 1.7 g	18.3 ± 0.7 g	23.6 ± 0.7 g	24.1 ± 1.0 g	25.9 ± 1.1 g	27.2 ± 0.5 g	26.9 ± 1.4 g	27.9 ± 1.5 g	–
CSCCN1C(=O)CCC(N2C(=O)c3cccc(N)c3C2=O)C1=O (stereo not shown) [Example 11, 4-amino-2-(1-(2-methylthioethyl)-2,6-dioxopiperidin-3-yl)isoindolin-1,3-dione]	18.1 ± 0.2 g	21.7 ± 0.2 g	22.4 ± 0.1 g	22.4 ± 0.1 g	23.5 ± 0.4 g	23.2 ± 0.8 g	23.2 ± 0.9 g	19.5 ± 0.6 g	23.7 ± 0.8 g	25.4 ± 0.4 g	25.4 ± 0.4 g	27.0 ± 0.5 g	29.0 ± 0.7 g	29.8 ± 1.0 g	–
CS(=O)(=O)CCN1C(=O)CCC(N2C(=O)c3cccc(N)c3C2=O)C1=O (stereo not shown) [Example 13, 4-amino-2-(1-(2-methylsulfonylethyl)-2,6-dioxopiperidin-3-yl)isoindolin-1,3-dione]	18.8 ± 1.1 g	21.3 ± 0.3 g	21.8 ± 0.4 g	21.8 ± 0.4 g	23.0 ± 0.5 g	23.2 ± 0.9 g	23.6 ± 0.9 g	19.6 ± 0.7 g	23.1 ± 0.6 g	24.4 ± 0.9 g	24.4 ± 0.9 g	26.5 ± 0.5 g	28.3 ± 1.3 g	28.4 ± 0.8 g	–
COCCCN1C(=O)CCC(N2C(=O)c3cccc(F)c3C2=O)C1=O (stereo not shown) [Example 17, 4-fluoro-2-(1-(3-methoxypropyl)-2,6-dioxopiperidin-3-yl)isoindolin-1,3-dione]	18.6 ± 1.0 g	21.9 ± 0.4 g	22.7 ± 0.4 g	22.7 ± 0.4 g	23.0 ± 0.4 g	23.1 ± 1.0 g	22.7 ± 1.2 g	19.0 ± 0.7 g	24.0 ± 0.7 g	24.6 ± 0.8 g	24.6 ± 0.8 g	26.1 ± 0.7 g	28.1 ± 0.6 g	29.3 ± 1.0 g	–
COCCCN1C(=O)CCC(N2C(=O)c3ccc(N)cc3C2=O)C1=O (stereo not shown) [Example 18, 5-amino-2-(1-(3-methoxypropyl)-2,6-dioxopiperidin-3-yl)isoindolin-1,3-dione]	18.4 ± 0.7 g	22.5 ± 0.8 g	23.8 ± 1.1 g	24.8 ± 1.5 g	24.8 ± 0.6 g	25.4 ± 0.7 g	25.2 ± 1.1 g	18.2 ± 0.4 g	23.0 ± 0.7 g	24.1 ± 0.4 g	25.6 ± 0.8 g	28.1 ± 1.1 g	29.0 ± 1.4 g	29.0 ± 1.0 g	–
CCOCCN1C(=O)CCC(N2C(=O)c3cccc(N)c3C2=O)C1=O (stereo not shown) [Example 19, 4-amino-2-(1-(2-ethoxyethyl)-2,6-dioxopiperidin-3-yl)isoindolin-1,3-dione]	18.0 ± 0.6 g	20.7 ± 1.1 g	21.3 ± 0.6 g	22.8 ± 0.3 g	23.2 ± 0.7 g	23.3 ± 1.2 g	23.0 ± 1.7 g	18.9 ± 1.2 g	20.7 ± 1.1 g	21.3 ± 0.6 g	25.0 ± 2.0 g	24.8 ± 1.9 g	26.5 ± 1.9 g	27.7 ± 2.2 g	–
